In PubChem BioAssay (NCI):
Several values for one entry are separate records, joined by “and”; a condition that tells them apart may be missing. Equal entries are not always repeated.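 Exposure lasted 48 hours, with cells grown in 96-well plates and compounds tested at five concentrations. GI50 is the concentration that inhibits growth by half. The concentration for full growth arrest is given as TGI.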

Key:
Assay in all cases: NCI anticancer screen, dose series, 48 h
DLD-1 colon = tested on: DLD-1 colon
DMS 114 small cell lung = tested on: DMS 114 small cell lung
DMS 273 small cell lung = tested on: DMS 273 small cell lung
LXFL 529 NSCLC = tested on: LXFL 529 NSCLC
SNB-78 CNS = tested on: SNB-78 CNS
XF 498 CNS = tested on: XF 498 CNS
RXF-631 renal = tested on: RXF-631 renal
HOP-18 NSCLC = tested on: HOP-18 NSCLC
MDA-N = tested on: MDA-N

Compound | TGI (DLD-1 colon) | TGI (DMS 114 small cell lung) | TGI (DMS 273 small cell lung) | TGI (LXFL 529 NSCLC) | TGI (SNB-78 CNS) | TGI (XF 498 CNS) | TGI (RXF-631 renal) | TGI (HOP-18 NSCLC) | TGI (MDA-N) | other results
COc1nc2c(c(O)c(C)c(=O)n2OC2OCC(OC(C)=O)C(OC(C)=O)C2OC(C)=O)c(=O)n1C (configuration not stated) | > 100 µM | > 100 µM | > 100 µM | > 100 µM | > 100 µM | > 100 µM | – | – | – | –
O=c1cc(O)cc2n1CCC2 | > 100 µM | > 100 µM | > 100 µM | > 100 µM | > 100 µM | > 100 µM | > 100 µM | – | – | –
COC(=O)/C=C(/C(=O)OC)C1(C)c2cc(C(=O)OC)c(C(=O)OC)c(N)c2C(=N)N1c1ccccc1 (configuration not stated) | 29.4 µM | 31.6 µM | > 100 µM | 38.6 µM | – | 28.4 µM | 86.9 µM | 62 µM | – | –
CCn1c2c(c3ccccc3c1=O)C(=O)c1ccccc1-2 | – | – | – | – | – | – | – | – | > 100 µM | –
O=C(NC1C(=O)NNC1c1cccc([N+](=O)[O-])c1)c1ccccc1 (configuration not stated) | > 100 µM | > 100 µM | – | > 100 µM | > 100 µM | > 100 µM | > 100 µM | > 100 µM | – | –
COC(=O)C1C(=O)O[C@@H](c2ccc3c(c2)OCO3)C1C(=O)OC (mixture of isomers) | > 100 µM | > 100 µM | > 100 µM | > 100 µM | > 100 µM | – | > 100 µM | – | – | –
CCOC(=O)c1nc(C)oc1C(F)(F)F | > 100 µM | > 100 µM | – | > 100 µM | > 100 µM | > 100 µM | – | – | – | –
Cc1ccc2c(c1)CN1c3ccc(C)cc3CN2C1c1ccccc1O | > 100 µM | > 100 µM | > 100 µM | > 100 µM | > 100 µM | – | – | – | – | –
O=[N+]([O-])c1ccc(Cl)c2c([N+](=O)[O-])cccc12 | – | – | – | – | – | – | – | – | 4.29 µM | –
C[C@]12Cc3cn[nH]c3C(=O)C1CC[C@@H]1C2CC[C@@]2(C)C1CC[C@@H]2O (some centres not stated) | – | > 100 µM | > 100 µM | > 100 µM | > 100 µM | > 100 µM | – | > 100 µM | – | –
O=c1c2ccccc2sc2c(CO)ccc(NCCN3CCCCC3)c12 | – | – | – | – | – | – | – | – | 11.6 µM | –
N#CC(C(=O)C(=O)Nc1c(Cl)cccc1Cl)c1ccccc1 (configuration not stated) | > 100 µM | > 100 µM | > 100 µM | > 100 µM | > 100 µM | > 100 µM | > 100 µM | > 100 µM | – | GI50 (DLD-1 colon): > 100 µM; GI50 (DMS 114 small cell lung): > 100 µM; GI50 (DMS 273 small cell lung): > 100 µM; GI50 (HOP-18 NSCLC): > 100 µM; GI50 (LXFL 529 NSCLC): > 100 µM; GI50 (RXF-631 renal): > 100 µM; GI50 (SNB-78 CNS): > 100 µM
O=C(NC12CC3CCC1CC(C3)C2)[C@@H]1CCCN1C(=O)OCc1ccccc1 (some centres not stated) | > 100 µM | > 100 µM | > 100 µM | > 100 µM | > 100 µM | > 100 µM | – | > 100 µM | – | –
CC(Br)C(=O)NC(CO)C(=O)O (configuration not stated) | – | – | – | – | – | – | – | – | > 100 µM | –
Nc1ncc(Cc2ccc3c(c2)OCO3)c(N)n1 | – | – | – | – | – | – | – | – | > 100 µM | –
N#C/C(=C\c1cc(OCc2ccccc2)c(OCc2ccccc2)cn1)C(N)=O | > 100 µM | > 100 µM | – | > 100 µM | > 100 µM | > 100 µM | > 100 µM | – | – | –
O=[N+]([O-])c1ccccc1C1SCc2nc3ccccc3n21 (configuration not stated) | > 100 µM | > 100 µM | > 100 µM | > 100 µM | – | > 100 µM | > 100 µM | > 100 µM | – | –
Cc1ccc(S(=O)(=O)OCC/C(=C\[Si](C)(C)C)c2ccccc2)cc1 | > 100 µM | > 100 µM | > 100 µM | > 100 µM | – | > 100 µM | – | > 100 µM | – | –

Compound | TGI (DLD-1 colon) | TGI (DMS 114 small cell lung) | TGI (DMS 273 small cell lung) | TGI (LXFL 529 NSCLC) | TGI (SNB-78 CNS) | TGI (XF 498 CNS) | TGI (RXF-631 renal) | TGI (HOP-18 NSCLC) | TGI (MDA-N) | other results
NNC(=O)C(=O)N/N=C1/CCCC1C(=O)CCC(=O)Nc1ccc(Cl)cc1 (configuration not stated) | > 100 µM | > 100 µM | > 100 µM | > 100 µM | > 100 µM | > 100 µM | > 100 µM | > 100 µM | – | –
Cc1cc(O)c2c(c1)C(=O)C=CC2=O | – | – | – | – | – | – | – | – | 9.13 µM and 4.68 µM | –
COc1cc(CNc2nc3cc(N)cc(N)c3nc2-c2ccccc2)cc(OC)c1 | – | – | – | – | – | – | – | – | 5.21 µM | GI50 (MDA-N): 2.33 µM
OCc1cc2c(cn1)[nH]c1ccc(NCc3ccccc3)cc12 | > 100 µM | 51.1 µM | 48 µM | 58.8 µM | – | 59.2 µM | > 100 µM | – | – | –
CC1=N/C(=C\c2ccc(/C=C3/N=C(C)OC3=O)cc2)C(=O)O1 | > 100 µM | > 100 µM | > 100 µM | > 100 µM | > 100 µM | > 100 µM | – | > 100 µM | – | –
O=c1/c(=C/c2ccccc2[N+](=O)[O-])sc2nnc(-c3cccnc3)n12 | > 100 µM | > 100 µM | > 100 µM | > 100 µM | > 100 µM | > 100 µM | > 100 µM | > 100 µM | – | –
COc1cc(Nc2cnc3ccc(C(F)(F)F)cc3n2)cc(OC)c1OC | – | – | > 100 µM | > 100 µM | > 100 µM | – | – | > 100 µM | – | –
COC(=O)CCC(NC(=S)N/N=C/c1cccs1)C(=O)OC (configuration not stated) | > 100 µM | > 100 µM | > 100 µM | > 100 µM | > 100 µM | > 100 µM | > 100 µM | > 100 µM | – | –
CC1=C(C(=O)Nc2ccccc2)C(c2ccc(N(C)C)cc2)C(C(=O)Nc2ccccc2)=C(C)N1 | > 100 µM | 6.57 µM | > 31.8 µM | > 100 µM | > 100 µM | > 100 µM | – | > 100 µM | > 100 µM | –
O=C1/C(=C\c2ccccc2)CN(C(=O)CCN2CCCCC2)C/C1=C/c1ccccc1 | 3.12 µM | 3.05 µM | 3.1 µM | 3.05 µM | 10.6 µM | 3.84 µM | 4.69 µM | 7.37 µM | 5.4 µM | –
O=C1NC(=O)c2c1n(Cc1ccccc1)c(=O)n2Cc1ccccc1 | > 100 µM | > 100 µM | > 100 µM | > 100 µM | > 100 µM | – | – | > 100 µM | – | –
CCN(C)c1nc(N(C)CC)c2nc(N(C)CC)nc(N(C)CC)c2n1 | – | – | – | – | – | – | – | – | > 100 µM | –
CCc1ccccc1NC(=O)c1cccc([N+](=O)[O-])c1O | > 100 µM | 51.5 µM | 86.2 µM | > 100 µM | 94.2 µM | 57.9 µM | > 100 µM | > 100 µM | – | –
Cc1nc(N)nc(CCC(=O)Nc2cccc(C(F)(F)F)c2)c1-c1ccc(Cl)cc1 | > 100 µM | > 100 µM | > 100 µM | > 100 µM | > 100 µM | > 100 µM | > 100 µM | > 100 µM | – | –
O=C1NC2=C(CCCCC/C2=N\O)C12CCCCCC2 | > 100 µM | > 100 µM | > 100 µM | > 100 µM | > 100 µM | > 100 µM | – | > 100 µM | – | –
COC1N(C2CC(O)C(CO)O2)C(=O)NC(=O)C1(F)Br (configuration not stated) | 50 µM | 50 µM | 50 µM | 50 µM | > 50 µM | 50 µM | 50 µM | > 50 µM | > 100 µM | –
COc1cc2oc(-c3ccc(O)cc3)cc(=O)c2c(O)c1C1OC(CO)C(O)C(O)C1O (configuration not stated) | > 100 µM | > 100 µM | > 100 µM | > 100 µM | > 100 µM | > 100 µM | – | > 100 µM | – | –
